Assay results: PMC11123956, “Nobiletin Stimulates Adrenal Hormones and Modulates the Circadian Clock in Mice” (Nutrients, 2024)

Columns and labels:
[1] = target: T1, PDE10A2 (Homo sapiens, UniProt Q9Y233); assay: PDE enzyme (kinase) assay, PDE10A2; assay type: biochemical
T1 construct: purchased Eurofins Panlabs Discovery Services Taiwan, Ltd. (contract assay); host or cells: insect Sf9 cells
Protocol: (§1) Enzyme assays for various subtypes of PDE (Table 1 and Figure 4) were conducted by Eurofins Panlabs Discovery Services Taiwan, Ltd. (New Taipei City, Taiwan). In the assays, five or six concentrations of nobiletin over five or six orders of magnitude were examined in experiments conducted in duplicate to determine the IC50 (concentration of nobiletin exerting half-maximal inhibition of control-specific activity). IC50 values were determined by nonlinear least squares regression analysis using MathIQTM (ID Business Solutions Ltd., Woking, UK). FAM-cAMP, FAM-cGMP (0.1 μM), and 100 μM [^3H]cGMP + cGMP were used for the substrate in the human recombinant insect Sf9 cells or Bovine retinal rod outer segments depending on the PDE subtype. The spectrofluorometric quantitation of fluorescein-AMP-IMAP, fluorescein-GMP-IMAP, or [^3H] guanosine was used depending on the PDE subtype. A known […] of each PDE was used as the positive control.
Figure 4 PDE kinase assays and the acute clock gene expression changes by PDE4 inhibitor or ROR α/γ agonist. (A) Inhibitory effect of nobiletin on PDE4A1, 4B1, and 10A2. Various concentrations of nobiletin (1–100 μM) were used for IC50 determination (Table 1). Values represent the mean of two experiments. Positive controls were rolipram for PDE4A1 and 4B1 and papaverine for PDE10A2. […]

[2] = system: serum corticosterone; assay: Serum corticosterone ELISA after i.p. injection; assay type: in vivo, mice; settings: 100 mg/kg i.p. at ZT3, 1 h after administration
Protocol: Male C57BL/6J mice (7 weeks old) were purchased from Charles River Japan (Kanagawa, Japan) and used for the serum hormone assay and RT-PCR. Male ICR mice were purchased from Tokyo Laboratory Animals Science Co., Ltd. (Tokyo, Japan), and female PERIOD2::LUCIFERASE (PER2::LUC) knock-in mice (ICR background) bred at Waseda University were used for blood glucose measurements and in vivo imaging assays, respectively. The mice were all housed under conditions of controlled temperature (23 °C ± 3 °C), humidity (50% ± 20%), and lighting (lights on from 07:00 to 19:00 at Taisho Pharmaceutical Co., Ltd. or from 08:00 to 20:00 at Waseda University). In the 24 h cycle, Zeitgeber time 0 (ZT0) was designated as the time when the lights were turned on, and ZT12 was designated as the time when the lights were turned off. […]
Serum corticosterone, adrenaline, and adreno-corticotropic hormone (ACTH) levels, and corticotropin releasing factor (CRF) in the hypothalamus, were measured using enzyme-linked immunosorbent assay (ELISA). […] Blood glucose levels were measured using a Glucose PILOT kit (Aventir Biotech, LLC, Carlsbad, CA, USA). The range of blood glucose that could be precisely measured with the kit was 20–600 mg/dL. […]

[3] = target: T2, PDE6 (Bos taurus, UniProt P11541+P23439); assay: PDE enzyme  assay, PDE6; assay type: biochemical, Bovine
T2 construct: Bovine retinal rod outer segments; tissue Eurofins Panlabs Discovery Services Taiwan, Ltd. (contract assay); host or cells: bovine retinal rod outer segments
T2 sequence (P11541 2-856 limits assumed): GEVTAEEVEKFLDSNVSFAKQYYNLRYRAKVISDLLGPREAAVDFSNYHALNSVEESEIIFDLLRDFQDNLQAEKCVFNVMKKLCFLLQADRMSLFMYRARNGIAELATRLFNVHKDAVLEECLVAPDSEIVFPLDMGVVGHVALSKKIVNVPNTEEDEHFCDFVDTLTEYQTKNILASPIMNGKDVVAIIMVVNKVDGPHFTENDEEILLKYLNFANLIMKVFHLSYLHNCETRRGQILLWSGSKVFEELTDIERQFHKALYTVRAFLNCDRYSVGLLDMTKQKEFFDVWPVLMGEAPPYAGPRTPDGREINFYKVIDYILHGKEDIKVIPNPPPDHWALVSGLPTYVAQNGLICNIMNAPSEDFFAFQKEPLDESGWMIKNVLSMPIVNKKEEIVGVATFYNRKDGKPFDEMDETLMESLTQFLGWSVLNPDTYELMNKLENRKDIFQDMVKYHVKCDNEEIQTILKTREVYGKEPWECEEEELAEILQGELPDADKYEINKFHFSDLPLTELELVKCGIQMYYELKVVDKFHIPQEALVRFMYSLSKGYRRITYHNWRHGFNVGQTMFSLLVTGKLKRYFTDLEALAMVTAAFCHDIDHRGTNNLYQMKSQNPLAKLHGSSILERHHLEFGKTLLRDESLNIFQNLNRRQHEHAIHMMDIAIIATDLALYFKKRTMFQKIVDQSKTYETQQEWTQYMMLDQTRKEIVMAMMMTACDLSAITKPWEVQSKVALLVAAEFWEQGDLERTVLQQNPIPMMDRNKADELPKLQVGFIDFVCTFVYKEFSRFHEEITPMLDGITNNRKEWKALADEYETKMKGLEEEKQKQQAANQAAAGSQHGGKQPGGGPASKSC
T2 sequence (P23439 2-850 limits assumed): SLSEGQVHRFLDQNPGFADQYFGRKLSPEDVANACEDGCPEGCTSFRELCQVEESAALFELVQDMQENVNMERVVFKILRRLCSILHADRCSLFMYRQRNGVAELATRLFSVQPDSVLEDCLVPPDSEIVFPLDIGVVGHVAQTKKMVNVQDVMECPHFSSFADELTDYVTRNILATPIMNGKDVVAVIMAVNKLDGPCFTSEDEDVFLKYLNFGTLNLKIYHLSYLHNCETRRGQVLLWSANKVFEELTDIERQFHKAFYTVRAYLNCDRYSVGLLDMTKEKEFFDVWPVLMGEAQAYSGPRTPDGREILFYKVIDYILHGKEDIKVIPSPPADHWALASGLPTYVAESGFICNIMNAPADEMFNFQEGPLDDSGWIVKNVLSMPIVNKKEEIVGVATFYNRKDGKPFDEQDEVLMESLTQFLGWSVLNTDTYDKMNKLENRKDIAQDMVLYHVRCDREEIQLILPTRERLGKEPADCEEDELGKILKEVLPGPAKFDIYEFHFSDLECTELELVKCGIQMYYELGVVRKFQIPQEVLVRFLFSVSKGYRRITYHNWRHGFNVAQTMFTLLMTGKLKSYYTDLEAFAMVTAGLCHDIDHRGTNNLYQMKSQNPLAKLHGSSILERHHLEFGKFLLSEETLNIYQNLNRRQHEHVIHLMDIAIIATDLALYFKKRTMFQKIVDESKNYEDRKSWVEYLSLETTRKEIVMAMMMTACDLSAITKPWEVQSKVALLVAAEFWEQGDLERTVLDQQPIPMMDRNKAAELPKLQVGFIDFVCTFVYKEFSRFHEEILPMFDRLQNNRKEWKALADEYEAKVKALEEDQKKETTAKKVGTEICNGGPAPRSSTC
Protocol: as §1

[4] = target: T3, PDE2A (Homo sapiens, UniProt O00408); assay: PDE enzyme  assay, PDE2A; assay type: biochemical
T3 construct: purchased Eurofins Panlabs Discovery Services Taiwan, Ltd. (contract assay); host or cells: insect Sf9 cells
T3 sequence (O00408 whole entry): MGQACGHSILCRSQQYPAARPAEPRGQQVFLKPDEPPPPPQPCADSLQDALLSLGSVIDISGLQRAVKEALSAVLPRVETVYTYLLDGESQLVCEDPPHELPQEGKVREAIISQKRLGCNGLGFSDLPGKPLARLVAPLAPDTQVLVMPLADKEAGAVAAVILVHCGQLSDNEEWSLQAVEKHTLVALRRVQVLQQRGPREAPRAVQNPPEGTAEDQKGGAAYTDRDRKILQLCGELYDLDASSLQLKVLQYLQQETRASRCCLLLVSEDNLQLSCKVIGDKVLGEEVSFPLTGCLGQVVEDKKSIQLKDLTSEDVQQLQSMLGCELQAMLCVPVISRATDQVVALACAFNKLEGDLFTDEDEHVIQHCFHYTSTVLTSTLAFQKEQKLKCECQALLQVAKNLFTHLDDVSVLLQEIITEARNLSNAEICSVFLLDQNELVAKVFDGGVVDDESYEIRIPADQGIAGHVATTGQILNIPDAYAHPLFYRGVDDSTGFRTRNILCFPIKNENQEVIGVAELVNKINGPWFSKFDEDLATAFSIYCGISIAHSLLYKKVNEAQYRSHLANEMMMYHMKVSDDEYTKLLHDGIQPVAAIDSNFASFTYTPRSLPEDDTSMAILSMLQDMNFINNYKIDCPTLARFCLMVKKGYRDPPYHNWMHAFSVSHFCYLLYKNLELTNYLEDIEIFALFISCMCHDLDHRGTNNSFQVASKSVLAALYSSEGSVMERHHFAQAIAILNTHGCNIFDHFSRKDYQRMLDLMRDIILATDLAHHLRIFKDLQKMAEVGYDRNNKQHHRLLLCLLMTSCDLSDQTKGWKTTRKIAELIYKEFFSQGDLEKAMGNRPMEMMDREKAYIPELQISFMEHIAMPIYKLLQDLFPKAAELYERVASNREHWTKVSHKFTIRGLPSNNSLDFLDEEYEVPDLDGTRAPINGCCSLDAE
Protocol: as §1

T1 sequence (Q9Y233 267-1055): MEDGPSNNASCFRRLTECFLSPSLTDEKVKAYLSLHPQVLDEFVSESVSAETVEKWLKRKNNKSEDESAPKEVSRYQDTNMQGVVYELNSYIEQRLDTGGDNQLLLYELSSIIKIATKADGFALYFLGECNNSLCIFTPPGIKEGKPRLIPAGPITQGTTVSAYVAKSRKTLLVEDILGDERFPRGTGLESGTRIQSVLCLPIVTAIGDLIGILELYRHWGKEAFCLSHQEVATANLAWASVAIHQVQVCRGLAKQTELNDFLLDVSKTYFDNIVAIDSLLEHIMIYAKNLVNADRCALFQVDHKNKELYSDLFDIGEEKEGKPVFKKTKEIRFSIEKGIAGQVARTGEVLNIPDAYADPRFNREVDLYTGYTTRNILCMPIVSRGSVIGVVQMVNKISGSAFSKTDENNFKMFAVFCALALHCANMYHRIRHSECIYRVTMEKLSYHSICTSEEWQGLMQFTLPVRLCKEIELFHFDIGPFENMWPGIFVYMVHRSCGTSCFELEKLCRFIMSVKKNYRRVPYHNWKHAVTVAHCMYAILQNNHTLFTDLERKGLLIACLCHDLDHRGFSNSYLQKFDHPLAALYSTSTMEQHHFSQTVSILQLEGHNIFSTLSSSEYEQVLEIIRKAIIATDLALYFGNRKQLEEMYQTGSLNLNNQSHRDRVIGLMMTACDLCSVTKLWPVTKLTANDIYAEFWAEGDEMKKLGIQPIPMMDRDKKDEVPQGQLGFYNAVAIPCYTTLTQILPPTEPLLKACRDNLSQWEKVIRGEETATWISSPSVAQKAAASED

For `COc1ccc(-c2cc(=O)c3c(OC)c(OC)c(OC)c(OC)c3o2)cc1OC` [nobiletin], the IC50 ([1]; IC50, PDE10A2, bound stated in the discussion) was no more than 6.03 µM, the IC50 ([1]; IC50 Dose, PDE10A2, duplicate) was 1.51 µM and the serum corticosterone levels [2] was “increase”. The IC50 [3] was 74.5 µM and the IC50 [4] was 9.91 µM.
